Results as given in patent US12599628B2, “Mitigation of cryptosporidiosis using hydrogen peroxide-generating compositions” (Purina Animal Nutrition, LLC, priority 2021, dated 2026).

How the values were obtained:
C. parvum sporozoites = experiment: In vitro Cryptosporidium exposure: C. parvum sporozoites mixed with treatment, added to HCT-8 cells, qPCR of COWP gene; type: cell-based; details: all treatment concentrations (0.26, 2.08, 3.125, 6.25, 12.5, 18.75, 25, 450 mg/L); p<0.05; FIG. 1
Protocol: (§1) Sodium percarbonate (0.26, 2.08, 3.125, 6.25, 12.5, 18.75, 25, or 450 mg/L) was tested for its ability to neutralize C. parvum sporozoites in host epithelial cells. HCT-8 (human ileocecal adenocarcinoma) cells were grown in a monolayer to 85-90% confluency in RPMI-1640 medium. Freshly excysted, washed C. parvum sporozoites were mixed with a sodium percarbonate treatment and then added to HCT-8 cells at 1.25×10^6 sporozoites per monolayer. The cells were incubated with the sporozoites for 2 hours at 10% CO2, 37° C. Cells were then washed and incubated in fresh media for 22 hours. Infected, untreated cells served as a control. After incubation, infected cells were harvested and DNA was isolated. The number of C. parvum were quantified using qPCR for the Cryptosporidium oocyst wall protein (COWP) gene.

C. parvum oocysts = experiment: Mouse Cryptosporidium challenge, infection level in intestines by qPCR; type: in vivo, Cryptosporidium parvum; details: FIG. 2
Protocol: Sodium percarbonate (“NPC”) at 0.26 mg/head, 12.5 mg/head, or 450 mg/head was tested in a Cryptosporidium challenge in mice. Eight-day-old ICR or CD-1 mice were divided into treatment (UA) and control (water) groups (n=10/group). Mice were infected with 1×10^4 C. parvum oocysts by oral inoculation. At the time of infection, and for every 12 hours thereafter, mice were treated with 100 μl per dose of NPC or water. A total of 8 doses per mouse were administered before termination of the challenge and collection of the intestines. The experiment was repeated twice (“Challenges I and II”). Infection levels were determined by qPCR against a known standard curve of C. parvum organisms.

[1] = tested on: C. parvum oocysts (Iowa isolate); experiment: Clinical calf cryptosporidiosis trial (oocyst shedding, body weight, feces, clinical scores); type: in vivo, Cryptosporidium parvum; details: for daily number of oocysts shed compared to control group: FIG. 3; for decrease in weight over the course of the trial: FIG. 5
[2] = tested on: C. parvum sporozoites excysted from oocysts shed by infected calves; experiment: Infectivity of Cryptosporidium oocysts shed by treated calves, excysted and tested on HCT-8 cells; type: cell-based, Cryptosporidium parvum; details: FIG. 8
Protocol: as §1, with “HCT-8” for “Sodium percarbonate (0.26, 2.08, 3.125, 6.25, 12.5, 18.75, 25, or 450 mg/L) was tested for its ability to neutralize C. parvum sporozoites in host epithelial cells. HCT-8”
Oocysts were collected from feces of calves in the control and treatment groups of Example 3 on multiple days during the duration of the study. The oocysts were excysted and analyzed to ensure equal excystation rates between the four treatment groups. HCT-8 cells were infected, harvested, and processed as described in Example 1.

Structure (SMILES): O=C([O-])[O-].O=C([O-])[O-].OO.OO.OO.[Na+].[Na+].[Na+].[Na+] [sodium percarbonate]
- reduction in infection by C. parvum sporozoites of HCT-8 cells compared to untreated control (C. parvum sporozoites): significantly reduced infected
- dose dependence of percent reduction in C. parvum infection (C. parvum oocysts; mice, 0.26, 12.5, 450 mg/head): increased as treatment dose increased
- percent reduction in C. parvum infection compared to control (C. parvum oocysts; mice, 450 mg/head, 8 doses every 12 hours, oral): 89.9%
- daily number of oocysts shed compared to control group ([1]; calves, 500 mg NPC BID in milk replacer, p<0.05): significantly fewer oocysts on Days 4-6 and 9-10 PI
- reduction of mean total number of oocysts shed over the trial compared to control group ([1]; calves, 500 mg NPC BID, Days 3-10 PI, p<0.05, FIG. 4): about 24%
- daily number of oocysts shed compared to control group ([1]; calves, 1000 mg NPC BID in milk replacer, p<0.05): significantly fewer oocysts on Days 6 and 10 PI
- decrease in weight over the course of the trial ([1]; infected calves, H-NPC (1000 mg NPC BID)): 3.6%
- decrease in weight over the course of the trial ([1]; infected calves, L-NPC (500 mg NPC BID)): 2.5%
- weight loss compared to the control group ([1]; infected calves, both NPC treatment groups (500 and 1000 mg BID)): tended to lose less weight
- ability of shed oocysts to infect HCT-8 cells compared with oocysts from untreated calves ([2]; oocysts from calves treated with high-dose (1000 mg BID) sodium percarbonate): reduced ability to infect HCT-8 cells
- ability of shed oocysts to infect HCT-8 cells compared with oocysts from untreated calves ([2]; oocysts from calves treated with low-dose (500 mg BID) sodium percarbonate): reduced ability to infect HCT-8 cells
